Assay [1] deals with T1, REV1 CTD-REV7/3 interaction (Mus musculus, UniProt Q920Q2).
T1 construct: fused on or other part: FLAG tag at the N-terminus (after the TEV site; His10-GB1 solubility tag cleaved off); di-glycine linker between mouse POL kappa RIR K564-N577 and the REV1 CTD; Q9QUG2 (DNA polymerase kappa)
Kind of assay: AlphaScreen assay, inhibition of the REV1 CTD-REV7/3 interaction. The assay is classed as binding. As to conditions: fitting of the inhibition curve, inhibitor 0-25 μM, n=3. Here is the method: The FLAG-tagged mouse POL κ-REV1 CTD was diluted in PBS containing 1 mM Tris(2-carboxyethyl)phosphine (TCEP) and 0.005% Tween-20 at a final protein concentration of 1 nM and transferred to individual wells of a 96-well, half-area, white opaque plate (PerkinElmer). Serially diluted RE01 stock solutions in 50% DMSO were added to the wells to yield final inhibitor concentrations of 0-25 μM in 2% DMSO. After 30 min incubation, anti-FLAG Donor Beads (PerkinElmer) were added to a final concentration of 20 ng/μL to individual wells and incubated for an hour. His8-tagged mouse REV7/3 was subsequently added to the reaction mixture to a final concentration of 10 nM and incubated for 30 min. Anti-His Acceptor Beads (PerkinElmer) were added to a final concentration of 20 ng/μL and incubated for an hour.
Error bars represent standard error (n=3).

The test system of assay [2] is Rev1^+/+ MEF cells. The assay can be described thus: Clonogenic survival assay. In kind it is cell-based, mouse. As to conditions: RE01 1.5 μM + cisplatin 0.5 μM vs cisplatin alone. On the procedure:
(§1) 300 cells were plated in triplicate in 6-well plates for 24 hours. Cisplatin (cis-diammineplatinum(II) dichloride, Sigma-Aldrich) was added to relevant wells for 24 hours. All plates were incubated at 37° C. for 24 hours. Media were changed the next day and in fresh media RE01 (at 1.5 μM concentration) was added to untreated or cisplatin-treated cells for another 24 hours. Media were changed at the end of these combination treatments, and cells were allowed to recover for 7 days. To stain the resulting colonies, media were aspirated and the fixative (50% methanol and 10% glacial acetic acid) was added for 10 minutes, followed by the addition of 0.02% Coomassie brilliant blue R-250 stain (ThermoFisher) in methanol: acetic acid: water in a ratio of 46.5:7:46.5 (v/v/v). Colonies that stained blue and contained at least 40 cells were counted. Relative cell survival or colony formation was calculated by dividing colony counts from treated samples by the DMSO or untreated controls.

The test system of assay [3] is A375 cells. Kind of assay: Clonogenic survival after siRNA knock-down of REV1. In kind it is cell-based, human. To be noted: RE01 1.5 μM, cisplatin 1 μM. On the procedure: as §1
(§2) REV1 was knocked down by transiently transfecting SMARTpool: ON-TARGETplus REV1 siRNA by nucleofection. The siRNA was mixed with the nucleofection buffer Mouse/Rat Hepatocyte Nucleofector™ Kit (Lonza) and electroporated using the Nucleofector™ 2b device. Full-length mouse Rev1 on the pC3 plasmid (Clontech) was nucleofected using the same buffers and device into Rev1^−/− cells to complement the REV1 function.

Assay [4] relates to HT1080 cells. Kind of assay: Clonogenic survival after siRNA knock-down of REV1. In kind it is cell-based, human. As to conditions: RE01 1.5 μM, cisplatin 1 μM. On the procedure:
as §1, §2

For assay [5], the system named is HT1080 cells. Kind of assay: Gapped plasmid TLS assay, cisplatin 1,2-GG lesion. The assay is classed as cell-based, human. As to conditions: pre-treatment with RE01 1.5, 3.0 and 15.0 μM for 24 hours. The text has this:
The double stranded plasmid pUC19 with ampicillin resistance was modified to include the oligonucleotide containing cisplatin 1,2-GG lesion on one strand and a gapped region across it. Briefly, the 16mer cisplatin-containing oligonucleotide was flanked by two 21mer regular DNA strands (5′-[…]-3′ (SEQ ID NO: 2) on the 5′ end and 5′-[…]-3′ (SEQ ID NO: 3) on the 3′ end) and elongated to a 58mer lesion-containing single strand DNA. After linearizing the plasmid by restriction endonucleases BstAPI and BspQI (New England Biolabs), the 58mer oligonucleotide was mixed with two scaffolds (5′-TGCATGCGCGCTACGACG-3′ (SEQ ID NO: 4) and 5′-[…]-3′ (SEQ ID NO: 5)) and ligated with the linear pUC19 plasmid to build up a circular plasmid containing a site-specific cisplatin 1,2-GG lesion and a 16-nucleotide gap on the opposite strand.
A competitor gapped plasmid that was three bases longer (started from a 19mer oligonucleotide 5′-CTCTCTAGGCTCACTTCTA-3′ (SEQ ID NO: 6)) than the lesion-containing plasmid was used as the internal control. The cells were pre-treated with either DMSO or RE01 (1.5, 3.0 and 15.0 μM) for 24 hours. […] The gap-filling efficiency by TLS was calculated by dividing the output ratio obtained from HPLC-MS with the input ratio (4:1) and the results were normalized to 100%.

T1 sequence (Q920Q2 whole entry, looked up, the tested form may be a part): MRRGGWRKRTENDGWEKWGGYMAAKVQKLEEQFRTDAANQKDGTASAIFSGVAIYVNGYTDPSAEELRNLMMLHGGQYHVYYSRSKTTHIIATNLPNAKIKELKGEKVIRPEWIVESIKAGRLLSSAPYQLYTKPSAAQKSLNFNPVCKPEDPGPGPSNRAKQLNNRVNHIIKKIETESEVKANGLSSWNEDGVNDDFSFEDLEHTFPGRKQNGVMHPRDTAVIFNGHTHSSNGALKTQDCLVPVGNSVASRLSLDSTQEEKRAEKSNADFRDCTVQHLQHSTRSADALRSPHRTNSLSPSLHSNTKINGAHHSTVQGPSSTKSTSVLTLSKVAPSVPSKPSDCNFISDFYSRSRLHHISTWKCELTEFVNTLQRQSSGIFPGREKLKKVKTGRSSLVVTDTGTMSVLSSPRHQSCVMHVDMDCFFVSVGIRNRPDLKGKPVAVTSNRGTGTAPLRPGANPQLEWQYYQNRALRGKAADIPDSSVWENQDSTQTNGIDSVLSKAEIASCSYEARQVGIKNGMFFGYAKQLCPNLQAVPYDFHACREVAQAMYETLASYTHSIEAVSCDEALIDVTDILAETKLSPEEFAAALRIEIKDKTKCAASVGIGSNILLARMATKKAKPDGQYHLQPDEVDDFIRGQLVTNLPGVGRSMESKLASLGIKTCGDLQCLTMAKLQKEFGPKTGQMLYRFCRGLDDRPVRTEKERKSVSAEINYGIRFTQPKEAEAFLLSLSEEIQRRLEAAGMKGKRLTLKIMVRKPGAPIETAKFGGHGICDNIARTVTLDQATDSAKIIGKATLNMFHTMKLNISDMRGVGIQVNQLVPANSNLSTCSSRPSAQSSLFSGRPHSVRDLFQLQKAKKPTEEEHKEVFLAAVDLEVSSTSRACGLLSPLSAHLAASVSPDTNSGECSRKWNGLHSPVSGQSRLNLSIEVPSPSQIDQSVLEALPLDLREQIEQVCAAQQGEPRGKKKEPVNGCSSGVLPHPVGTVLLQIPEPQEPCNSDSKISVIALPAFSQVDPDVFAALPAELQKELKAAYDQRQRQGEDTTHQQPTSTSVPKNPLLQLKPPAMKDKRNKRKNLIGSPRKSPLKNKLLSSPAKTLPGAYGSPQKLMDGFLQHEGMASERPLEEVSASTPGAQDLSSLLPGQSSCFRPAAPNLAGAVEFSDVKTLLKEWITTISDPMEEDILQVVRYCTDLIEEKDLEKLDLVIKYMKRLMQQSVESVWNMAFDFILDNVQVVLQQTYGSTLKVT

In turn, `CC(C)CC(=O)c1c(Nc2ccc(Cl)cc2Cl)[nH]c2c(Cl)ccc([N+](=O)[O-])c2c1=O` [RE01, 8-chloro-2-((2,4-dichlorophenyl)amino)-3-(3-methylbutanoyl)-5-nitroquinolin-4(1H)-one] had an IC50 in assay [1] of 780 nM. Further, the colony forming ability result in assay [2] is recorded as “significantly reduced”. In addition, the “RE01 mediated sensitization to cisplatin” value in assay [3] and in assay [4] was “abolished” each time. In addition, the “bypass efficiency of 1,2-GG cisplatin DNA adduct” value in assay [5] is reported as “suppresses”.

The record behind these values is patent US11801242B2, “Compositions and methods for adjuvant cancer therapeutics” (DUKE UNIVERSITY, priority 2018, dated 2023).
